US10898504B2, “Substituted nucleoside analogues for use as PRMT5 inhibitors” (Janssen Pharmaceutica NV, priority 2016, dated 2021)
Several values for one entry are separate records, joined by “and”; a condition that tells them apart may be missing. Equal values may be shown once.

What was measured:
[1] = biological target: T1, PRMT5-MEP50 enzyme (Homo sapiens, UniProt O14744); experiment: In vitro assay (Assay 1): PRMT5-MEP50 high throughput mass spectrometer assay, inhibition of SAH formation; format: biochemical; details: individual measurements shown, read-out: pIC50 Assay 1 (converted)
T1 construct: One virus expresses full length human PRMT5 with Flag-tag at N-terminus
T1 sequence (O14744 whole entry): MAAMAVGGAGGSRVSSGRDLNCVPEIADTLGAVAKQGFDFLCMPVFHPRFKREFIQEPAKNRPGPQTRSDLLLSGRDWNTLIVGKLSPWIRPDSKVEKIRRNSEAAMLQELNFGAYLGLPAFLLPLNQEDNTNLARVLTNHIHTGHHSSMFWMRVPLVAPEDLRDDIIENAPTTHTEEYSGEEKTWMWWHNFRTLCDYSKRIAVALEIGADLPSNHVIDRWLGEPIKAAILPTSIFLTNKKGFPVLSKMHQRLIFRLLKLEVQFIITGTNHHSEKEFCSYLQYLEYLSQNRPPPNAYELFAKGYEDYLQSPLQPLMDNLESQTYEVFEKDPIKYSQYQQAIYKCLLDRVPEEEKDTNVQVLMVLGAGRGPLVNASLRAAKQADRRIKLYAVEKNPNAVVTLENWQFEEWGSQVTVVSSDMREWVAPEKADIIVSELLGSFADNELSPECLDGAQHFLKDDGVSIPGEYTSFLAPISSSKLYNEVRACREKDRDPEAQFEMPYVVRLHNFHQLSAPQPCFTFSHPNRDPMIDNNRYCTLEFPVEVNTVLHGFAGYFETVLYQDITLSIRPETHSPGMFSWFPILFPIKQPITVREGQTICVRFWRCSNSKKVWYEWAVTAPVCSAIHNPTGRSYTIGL
T1 sequence (Q9BQA1 whole entry partner): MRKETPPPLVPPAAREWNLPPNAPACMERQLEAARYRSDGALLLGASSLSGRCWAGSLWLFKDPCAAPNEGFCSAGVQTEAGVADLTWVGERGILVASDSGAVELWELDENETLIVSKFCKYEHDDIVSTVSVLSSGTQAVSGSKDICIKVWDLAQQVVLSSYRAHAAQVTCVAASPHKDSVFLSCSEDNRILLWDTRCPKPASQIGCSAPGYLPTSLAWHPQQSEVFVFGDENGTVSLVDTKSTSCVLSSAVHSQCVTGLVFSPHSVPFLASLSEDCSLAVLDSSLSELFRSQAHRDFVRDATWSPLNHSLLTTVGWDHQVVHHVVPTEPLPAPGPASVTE
Method in brief: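 Flag-PRMT5/His-MEP50 full-length human complex (Sf9-expressed), 10 nM, with 1 μM SAM and 0.3 μM histone H2A in 20 mM Tris-HCl pH 8.5, 50 mM NaCl, 5 mM MgCl2, 1 mM DTT; 60 min at 30 °C, quenched with 1% formic acid. SAH quantified by RapidFire MS; IC50 from 11-point 1:2 series fitted to four-parameter Hill equation.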

[2] = system: A549 cells; experiment: PD assay (Assay 2): inhibition of nuclear symmetric Arginine dimethylation (SYM10 immunohistochemistry) in A549 cells; format: cell-based; details: individual measurements shown; for IC50: Homo sapiens, A549, PD assay in A549 cells, read-out: pIC50 Assay 2 (converted); for pIC50 Assay 2: PD assay in A549 cells
Method in brief: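 A549 cells dosed with a nine-point series (0.2% DMSO) for 48 h at 37° C, then fixed and immunostained with SYM10 anti-symmetric-dimethylarginine antibody, plus Hoechst and CellMask counterstains for high-content imaging. Nuclear signal normalized between DMSO and 10 μM reference-compound controls to derive IC50/pIC50.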

Row | SMILES | IC50 [1] | IC50 [2] [nM] | pIC50 Assay 2 [2]
1 | Nc1ncnc2c1ccn2[C@@H]1O[C@H](CN2CCC23CCNCC3)[C@@H](O)[C@H]1O [Compound 112] | 33.1 nM | ~1780 | –
2 | Nc1ncnc2c1ccn2[C@@H]1O[C@H](CN2CCCCC23CCNCC3)[C@@H](O)[C@H]1O [Compound 113] | 8.13 nM | 145 | –
3 | Nc1ncnc2c1ccn2[C@@H]1O[C@H](CN2CCCC3(CCNCC3)C2)[C@@H](O)[C@H]1O [Compound 114] | 33.9 nM | ~1070 | –
4 | CN1CCC2(CC1)CC(F)(F)CN2CC1C[C@@H](n2ccc3c(N)ncnc32)[C@H](O)[C@@H]1O (stereo partly drawn) [Compound 123] | 22.4 nM | 162 | –
5 | Nc1ncnc2c1ccn2[C@@H]1C[C@H](CN2CCCC23CCNCC3)[C@@H](O)[C@H]1O [Compound 124] | 27.5 nM | 447 | –
6 | CN1CCC2(CCCN2CC2C[C@@H](n3ccc4c(N)ncnc43)[C@H](O)[C@@H]2O)CC1 (stereo partly drawn) [Compound 125] | 148 nM | ~871 | –
7 | Nc1ncnc2c1ccn2[C@@H]1C[C@H](CN2CC(F)(F)CC23CCNCC3)[C@@H](O)[C@H]1O [Compound 126] | 17.4 nM | 44.7 | –
8 | NCC[C@@H]1CCCN1C[C@H]1CN(C2C=Cc3c(N)ncnc32)[C@H](O)[C@@H]1O (stereo partly drawn) [Compound 127] | 61.7 nM | ~2750 | –
9 | NCC[C@@H]1CC(F)(F)CCN1C[C@H]1O[C@@H](c2ccc3c(N)ncnn23)[C@H](O)[C@@H]1O [Compound 128] | 204 nM | > 10000 | –
10 | CN(C)C[C@@H]1COCCN1C[C@H]1O[C@@H](c2ccc3c(N)ncnn23)[C@H](O)[C@@H]1O [Compound 129] | > 10000 nM | > 20000 | –
11 | Nc1ncnn2c([C@@H]3O[C@H](CN4CCOC[C@H]4CN4CCC(F)(F)C4)[C@@H](O)[C@H]3O)ccc12 [Compound 130] | > 10000 nM | > 20000 | –
12 | Nc1ncnn2c([C@@H]3O[C@H](CN4CCOC[C@H]4CN4CCCC4)[C@@H](O)[C@H]3O)ccc12 [Compound 131] | > 10000 nM | > 20000 | –
13 | NC[C@@H]1COCCN1C[C@H]1O[C@@H](c2ccc3c(N)ncnn23)[C@H](O)[C@@H]1O [Compound 132] | 1550 nM | > 20000 | –
14 | Nc1ncnn2c([C@@H]3O[C@H](CN4CCCC45CCNCC5)[C@@H](O)[C@H]3O)ccc12 [Compound 133] | 28.8 nM | ~1050 | –
15 | NCC[C@@H]1COCCN1C[C@H]1O[C@@H](c2ccc3c(N)ncnn23)[C@H](O)[C@@H]1O [Compound 134] | 200 nM | 8910 | –
16 | CN1CCC2(CCCN2C[C@H]2O[C@@H](c3ccc4c(N)ncnn34)[C@H](O)[C@@H]2O)CC1 [Compound 135] | 617 nM | ~1050 | –
17 | Nc1ncnn2c([C@@H]3O[C@H](CN4CC(F)(F)CC45CCNCC5)[C@@H](O)[C@H]3O)ccc12 [Compound 136] | 50.1 nM | ~263 | –
18 | Nc1ncnn2c([C@@H]3O[C@H](CN4C(C(F)(F)F)CCC45CCNCC5)[C@@H](O)[C@H]3O)ccc12 (stereo partly drawn) [Compound 137] | 1150 nM | > 10000 | –
19 | Nc1ncnn2c([C@@H]3O[C@H](CN4CCCC45CCN(CCc4ccc(F)cc4)CC5)[C@@H](O)[C@H]3O)ccc12 [Compound 139] | 3240 nM | 1660 | –
20 | N#CCN1CCC2(CCCN2C[C@H]2O[C@@H](c3ccc4c(N)ncnn34)[C@H](O)[C@@H]2O)CC1 [Compound 140] | 295 nM | ~3020 | –
21 | Nc1ncnn2c([C@@H]3O[C@H](CN4CCCC45CCN(CC(F)(F)F)CC5)[C@@H](O)[C@H]3O)ccc12 [Compound 141] | > 10000 nM | > 10000 | –
22 | CCN1CCC2(CCCN2C[C@H]2O[C@@H](c3ccc4c(N)ncnn34)[C@H](O)[C@@H]2O)CC1 [Compound 142] | 1950 nM | > 10000 | –
23 | Nc1ncnn2c([C@@H]3O[C@H](CN4CC(F)(F)CC45CCN(CCc4ccc(F)cc4)CC5)[C@@H](O)[C@H]3O)ccc12 [Compound 143] | 7240 nM | 1580 | –
24 | N#CCN1CCC2(CC1)CC(F)(F)CN2C[C@H]1O[C@@H](c2ccc3c(N)ncnn23)[C@H](O)[C@@H]1O [Compound 144] | 447 nM | ~933 | –
25 | Nc1ncnn2c([C@@H]3O[C@H](CN4CC(F)(F)CC45CCN(CC(F)(F)F)CC5)[C@@H](O)[C@H]3O)ccc12 [Compound 145] | > 10000 nM | > 10000 | –
26 | CCN1CCC2(CC1)CC(F)(F)CN2C[C@H]1O[C@@H](c2ccc3c(N)ncnn23)[C@H](O)[C@@H]1O [Compound 146] | 3980 nM | 4680 | –

The remaining lines, values ahead:

Row | IC50 [1] | IC50 [2] [nM] | pIC50 Assay 2 [2] | SMILES
27 | 186 nM | 603 | – | CN1CCC2(CC1)CC(F)(F)CN2C[C@H]1O[C@@H](c2ccc3c(N)ncnn23)[C@H](O)[C@@H]1O [Compound 147]
28 | 1260 nM | > 10000 | – | CN(C)CC[C@@H]1CCCN1C[C@H]1O[C@@H](c2ccc3c(N)ncnn23)[C@H](O)[C@@H]1O [Compound 148]
29 | > 10000 nM | > 10000 | – | Nc1ncnn2c([C@@H]3O[C@H](CN4CCC[C@H]4CCN4CCOCC4)[C@@H](O)[C@H]3O)ccc12 [Compound 150]
30 | 5500 nM | ~6170 | – | CN(C)C[C@@H]1CC(F)(F)CN1C[C@H]1O[C@@H](c2ccc3c(N)ncnn23)[C@H](O)[C@@H]1O [Compound 151]
31 | 2950 nM | 4070 | – | CN(C)CC[C@@H]1CC(F)(F)CN1C[C@H]1O[C@@H](c2ccc3c(N)ncnn23)[C@H](O)[C@@H]1O [Compound 152]
32 | > 10000 nM | > 10000 | – | Nc1ncnn2c([C@@H]3O[C@H](CN4CC(F)(F)C[C@H]4CCN4CCOCC4)[C@@H](O)[C@H]3O)ccc12 [Compound 154]
33 | 2510 nM | > 10000 | – | Nc1ncnn2c([C@@H]3O[C@H](CN4CC(F)(F)C[C@H]4CCN4CCCC4)[C@@H](O)[C@H]3O)ccc12 [Compound 155]
34 | 26.3 nM | 1050 | – | NCC[C@@H]1CC(F)(F)CN1C[C@H]1O[C@@H](c2ccc3c(N)ncnn23)[C@H](O)[C@@H]1O [Compound 156]
35 | > 10000 nM | > 20000 | – | CN(C)C[C@@H]1CC(F)(F)CCN1C[C@H]1O[C@@H](c2ccc3c(N)ncnn23)[C@H](O)[C@@H]1O [Compound 157]
36 | > 10000 nM | > 20000 | – | Nc1ncnn2c([C@@H]3O[C@H](CN4CCC(F)(F)C[C@H]4CN4CCCC4)[C@@H](O)[C@H]3O)ccc12 [Compound 159]
37 | 2690 nM | > 20000 | – | NC[C@@H]1CC(F)(F)CCN1C[C@H]1O[C@@H](c2ccc3c(N)ncnn23)[C@H](O)[C@@H]1O [Compound 160]
38 | 380 nM | 4170 | – | Nc1ncnn2c([C@@H]3O[C@H](C(=O)N4CCCC45CCNCC5)[C@@H](O)[C@H]3O)ccc12 [Compound 161]
39 | 3800 nM | > 20000 | – | CN(C)CC[C@@H]1CC(F)(F)CN1C(=O)[C@H]1O[C@@H](c2ccc3c(N)ncnn23)[C@H](O)[C@@H]1O [Compound 162]
40 | 8.51 nM | 126 | – | Nc1ncnc2c1ccn2[C@@H]1C[C@H](C(=O)N2CCCC23CCNCC3)[C@@H](O)[C@H]1O [Compound 163]
41 | > 10000 nM | ~6460 | – | CC(C)C(=O)O[C@@H]1[C@@H](CN2CC(F)(F)CC23CCNCC3)C[C@@H](n2ccc3c(N)ncnc32)[C@@H]1OC(=O)C(C)C [Compound 164]
42 | 871 nM | > 10000 | – | Nc1ncnn2c([C@@H]3O[C@H](CN4CCC45CCNCC5)[C@@H](O)[C@H]3O)ccc12 [Compound 165]
43 | 1.86 nM and 1.58 nM and 0.631 nM | – | 7.41 and 7.92 and 7.87 | Nc1ncnc2c1ccn2[C@@H]1C[C@H](CC2=CCCC23CCNCC3)[C@@H](O)[C@H]1O [Compound 166]
44 | 3.16 nM and 1.58 nM | 30.2 | 7.68 | Nc1ncnc2c1ccn2[C@@H]1C[C@H](/C=C2\CCCC23CCNCC3)[C@@H](O)[C@H]1O [Compound 167]
45 | 26.3 nM and 17.4 nM and 8.51 nM | 204 | ~6.64 and ~6.7 | CN1CCC2(CCCN2C[C@H]2O[C@@H](n3ccc4c(N)ncnc43)[C@H](O)[C@@H]2O)CC1 [Compound 168]
46 | 275 nM | 603 | – | Nc1ncnc2c1ccn2[C@@H]1O[C@H](CN2CCCC23CCN(CCC(F)(F)F)CC3)[C@@H](O)[C@H]1O [Compound 169]
47 | 42.7 nM | ~148 | – | Nc1ncnc2c1ccn2[C@@H]1O[C@H](CN2CCCC23CCN(CCc2ccc(F)cc2)CC3)[C@@H](O)[C@H]1O [Compound 170]
48 | 1620 nM | ~4070 | – | Nc1ncnc2c1ccn2[C@@H]1O[C@H](CN2CCCC23CCN(Cc2ccc(F)cc2)CC3)[C@@H](O)[C@H]1O [Compound 171]
49 | 309 nM | ~912 | – | Nc1ncnc2c1ccn2[C@@H]1O[C@H](CN2CCCC23CCN(Cc2cccnc2)CC3)[C@@H](O)[C@H]1O [Compound 172]
50 | 347 nM | 776 | – | Nc1ncnc2c1ccn2[C@@H]1O[C@H](CN2CCCC23CCN(CCOc2ccc(F)cc2)CC3)[C@@H](O)[C@H]1O [Compound 173]
51 | 501 nM | ~2290 | – | Nc1ncnc2c1ccn2[C@@H]1O[C@H](CN2CCCC23CCN(C2CC2)CC3)[C@@H](O)[C@H]1O [Compound 174]
52 | 589 nM | 1410 | – | Nc1ncnc2c1ccn2[C@@H]1O[C@H](CN2CCCC23CCN(Cc2ccoc2)CC3)[C@@H](O)[C@H]1O [Compound 175]
53 | 1120 nM | 6030 | – | Cc1nc(CN2CCC3(CCCN3C[C@H]3O[C@@H](n4ccc5c(N)ncnc54)[C@H](O)[C@@H]3O)CC2)cs1 [Compound 176]
